Results published in patent publication US8716293B2, “Macrocyclic integrase inhibitors” (Janssen R&D Ireland, priority 2010, dated 2014).

Legend:
HIV-1 SDM strain Q148R = test: cell-based HIV-1 replication assay in MT4-LTR-EGFP cells, Q148R mutant; conditions: fold change in activity against Q148R mutant compared to wild type HIV
Source text: (§1) MT4-LTR-enhanced green fluorescent protein (EGFP) cells were obtained by transfecting MT4 cells with a selectable construct encompassing the coding sequences for the HIV LTR as a promoter for the expression of EGFP and subsequent selection of permanently transfected cells. MT4-cytomegalovirus (CMV)-EGFP cells were obtained by selection for permanently transformed MT4 cells with a CMV-EGFP reporter gene. Cell lines were maintained in RPMI 1640 medium supplemented with 10% heat-inactivated fetal calf serum, 2 mM L-glutamine, 0.1% NaHCO3, and antibiotics (0.02% gentamicin and 0.8% G418) and incubated in a humidified incubator with a 5% CO2 atmosphere at 37° C.
(§2) N155H and Q148R mutant Integrase coding sequences were constructed in the pUC19-5′HXB2D vector (XbaI-SalI fragment of pHXB2D), containing the HIV-1 clone HXB2D IN coding sequence, by using a QuikChange site-directed mutagenesis kit (Stratagene, La Jolla, Calif.) and HPLC-purified primers (Genset Oligos, La Jolla, Calif.). Altered plasmid sequences were confirmed by dideoxyribose sequencing. For generation of site-directed mutant (SDM) virus stocks, MT4 cells were subcultured at a density of 250,000 cells/ml on the day before transfection. Cells were pelleted and resuspended in phosphate-buffered saline at a concentration of 3.1×10^6 cells/ml. A 0.8-ml portion ([…]) was used for each transfection. Transfections were performed with a Bio-Rad Gene Pulser (Bio-Rad, Hercules, Calif.) with 0.4-cm electrode cuvettes (Bio-Rad). Cells were electroporated with 10 μg of SalI-linearized pUC19-3′HXB2D (SalI-XbaI fragment of pHXB2D) and 5 μg of SalI-digested SDM at 250 μF and 300 V, followed by a 30-min incubation at room temperature. Ten ml of fresh culture medium was then added to the suspension of transfected cells, and incubation was performed at 37° C. in a humidified atmosphere with 5% CO2. Cell cultures were monitored for the appearance of cytopathic effect (CPE).
(§3) The inhibitory antiviral activity of different compounds was determined in a cell-based HIV-1 replication assay. MT4-LTR-EGFP cells (150,000 cells/ml) were infected with HIV-1 (IIIB or SDM strains Q148R, N155H, or G140S-Q148H; multiplicity of infection [MOI] of 0.0025) in the presence or absence of inhibitor. After 3 days of incubation, the inhibition of HIV replication was quantified by measuring EGFP fluorescence, and expressed as the compound concentration required for 50% inhibition of HIV-1 replication in cell culture (EC50).

HIV-1 SDM strain N155H = test: cell-based HIV-1 replication assay in MT4-LTR-EGFP cells, N155H mutant; conditions: fold change in activity against N155H mutant compared to wild type HIV
Source text: as §1, §2, §3

[1] = test system: HIV-1 SDM strain G140S-Q148H; test: cell-based HIV-1 replication assay in MT4-LTR-EGFP cells, G140S-Q148H mutant; conditions: fold change in activity against G140S-Q148H mutant compared to wild type HIV
Source text: as §1, §2, §3

HIV-1 LAI (IIIB) = test: antiviral assay in the presence of 50% human serum; format: cell-based; conditions: MT-4-LTR-EGFP cells, 4 days, resazurin cell viability
Description: For the antiviral assay in the presence of 50% human serum, MT-4-LTR-EGFP cells were infected with HIV-1 LAI (IIIB) at a MOI of 0.001 to 0.01 CCID50/cell in RPMI1640 medium. Following 1 h of incubation, cells were washed and plated into a 96-well plate containing serial dilutions of test compound in the presence of 10% fetal calf serum or 50% human serum. After 4 days of incubation, the EC50 in the presence of 50% human serum (EC50/HS) was determined by a cell viability assay using resazurin (as described by Fields, R. D., and M. V. Lancaster (1993) Am. Biotechnol. Lab. 11:48-50).

Compound	FC-Q148R (HIV-1 SDM strain Q148R)	FC-N155H (HIV-1 SDM strain N155H)	FC-G140S-Q148H [1]	EC50 (HIV-1 LAI (IIIB)) [nM]
CCN1C[C@H](C)n2c(c(O)c3c(=O)n4nc(c32)N2CCN(CCCCCOc3cc(F)ccc3C4)S2(=O)=O)C1=O [Compound 2a]	0.7	25.3	3.3	682
CCN1C[C@H](C)n2c(c(O)c3c(=O)n4nc(c32)N2CCN(CCCCCOc3cc(F)ccc3C4)S2(=O)=O)C1=O [Compound 2b]	0.9	8.0	6.2	8
CCN1C[C@H](C)n2c(c(O)c3c(=O)n4nc(c32)N(C)S(=O)(=O)CCCOc2cc(F)ccc2C4)C1=O [Compound 8]	3.3	11.7	11.3	10
CCN1C[C@H](C)n2c(c(O)c3c(=O)n4nc(c32)N(C)S(=O)(=O)[C@@H](C)CCCCOc2cc(F)ccc2C4)C1=O [Compound 9]	0.4	2.0	1.2	1930
CCN1C[C@H](C)n2c(c(O)c3c(=O)n4nc(c32)N(C)S(=O)(=O)[C@H](C)CCCCOc2cc(F)ccc2C4)C1=O [Compound 10]	0.5	2.8	1.2	17
CCN1C[C@H](C)n2c(c(O)c3c(=O)n4nc(c32)N(CC)S(=O)(=O)CCCCOc2cc(F)ccc2C4)C1=O [Compound 11]	2.1	5.1	14.3	9
CCN1C[C@H](C)n2c(c(O)c3c(=O)n4nc(c32)N(C2CC2)S(=O)(=O)CCCCOc2cc(F)ccc2C4)C1=O [Compound 12]	0.7	3.5	5.1	13
CCN1c2nn(c(=O)c3c(O)c4n(c23)[C@@H](C)CN(C(C)C)C4=O)Cc2ccc(F)cc2OCCCCS1(=O)=O [Compound 13]	0.7	3.5	2.6	11
CC(C)N1C[C@H](C)n2c(c(O)c3c(=O)n4nc(c32)N(C2CC2)S(=O)(=O)CCCCOc2cc(F)ccc2C4)C1=O [Compound 14]	1.0	3.5	4.3	18
CCN1C[C@H](C)n2c(c(O)c3c(=O)n4nc(c32)N(CC)S(=O)(=O)CCCCCOc2cc(F)ccc2C4)C1=O [Compound 15]	0.5	3.4	1.4	33
CCN1C[C@H](C)n2c(c(O)c3c(=O)n4nc(c32)N(C2CC2)S(=O)(=O)CCCCCOc2cc(F)ccc2C4)C1=O [Compound 16]	0.6	3.5	1.3	43
CCN1C[C@H](C)n2c(c(O)c3c(=O)n4nc(c32)N(C)S(=O)(=O)CCCCOc2cc(F)c(Cl)cc2C4)C1=O [Compound 17]	0.6	4.7	1.9	24
CCN1C[C@H](C)n2c(c(O)c3c(=O)n4nc(c32)N(C)S(=O)(=O)CCCCCOc2cc(F)c(Cl)cc2C4)C1=O [Compound 18]	0.8	4.7	1.8	47
CCN1C[C@H](C)n2c(c(O)c3c(=O)n4nc(c32)N(C)S(=O)(=O)CCCCOc2cc(F)c(F)cc2C4)C1=O [Compound 19]	1.1	4.9	3.6	8
CCN1C[C@H](C)n2c(c(O)c3c(=O)n4nc(c32)N(C)S(=O)(=O)CCCCCOc2cc(F)c(F)cc2C4)C1=O [Compound 20]	0.6	4.8	1.5	17
CCN1C[C@H](C)n2c(c(O)c3c(=O)n4nc(c32)N(C)S(=O)(=O)CCCCCNC(=O)c2cc(F)ccc2C4)C1=O [Compound 21]	0.6	6.6	1.9	54
CCN1C[C@H](C)n2c(c(O)c3c(=O)n4nc(c32)N(C)S(=O)(=O)CCCNC(=O)c2cc(F)ccc2C4)C1=O [Compound 23]	0.7	9.6	2.1	7
CCN1C[C@H](C)n2c(c(O)c3c(=O)n4nc(c32)C(=O)NCCCCOc2cc(F)ccc2C4)C1=O [Compound 24]	4.3	10.4	179.1	11
CCN1C[C@H](C)n2c(c(O)c3c(=O)n4nc(c32)C(=O)NCCCCCOc2cc(Cl)ccc2C4)C1=O [Compound 25]	0.3	3.5	3.7	138
CCN1C[C@H](C)n2c(c(O)c3c(=O)n4nc(c32)C(=O)NCCCCCOc2cc(F)c(Cl)cc2C4)C1=O [Compound 26]	0.8	4.3	4.1	32
CCN1CCn2c(c(O)c3c(=O)n4nc(c32)C(=O)NCCCCCOc2cc(F)ccc2C4)C1=O [Compound 27]	3.0	8.6	668.8	5
C[C@H]1CN(C)C(=O)c2c(O)c3c(=O)n4nc(c3n21)C(=O)NCCCCCOc1cc(F)ccc1C4 [Compound 28]	0.9	4.5	17.0	14
CC(C)N1C[C@H](C)n2c(c(O)c3c(=O)n4nc(c32)C(=O)NCCCCCOc2cc(F)ccc2C4)C1=O [Compound 29]	0.4	3.8	2.2	19
CCN1C[C@H](C)n2c(c(O)c3c(=O)n4nc(c32)C(=O)N(C)CCCCOc2cc(F)ccc2C4)C1=O [Compound 30]	41.1	410.4	572.0	28
CCN1C[C@H](C)n2c(c(O)c3c(=O)n4nc(c32)C(=O)N(C)CCCCCOc2cc(F)c(Cl)cc2C4)C1=O [Compound 32]	0.3	4.3	2.6	77
CCN1C[C@H](C)n2c(c(O)c3c(=O)n4nc(c32)C(=O)N(C)CCCCCOc2cc(F)c(F)cc2C4)C1=O [Compound 34]	0.4	7.4	5.9	18
CC(C)N1C[C@H](C)n2c(c(O)c3c(=O)n4nc(c32)C(=O)N(C)CCCCCOc2cc(F)ccc2C4)C1=O [Compound 35]	0.4	4.8	2.7	30
C[C@H]1CN(C2CC2)C(=O)c2c(O)c3c(=O)n4nc(c3n21)C(=O)NCCCCCOc1cc(F)ccc1C4 [Compound 36]	2.4	5.8	60.1	18
C[C@H]1CN(C2CC2)C(=O)c2c(O)c3c(=O)n4nc(c3n21)C(=O)N(C)CCCCCOc1cc(F)ccc1C4 [Compound 37]	0.8	8.8	109.5	22
CCN1CCn2c(c(O)c3c(=O)n4nc(c32)C(=O)N(C)CCCCCOc2cc(F)ccc2C4)C1=O [Compound 38]	1.2	6.8	106.3	29
